Assay results reported in paper PMC8151276, “An Integrated Approach toward NanoBRET Tracers for Analysis of GPCR Ligand Engagement” (Molecules, 2021).

Experiments:
Type in all cases: binding
ADRB1 = biological target: T1, ADRB1 (Homo sapiens, UniProt P08588); test: NanoBRET screen HiBiT-ADRB1 in HEK293
T1 construct: purchased Promega (in-house HiBiT-GPCR construct library, NanoBRET)

ADORA1 = biological target: T2, ADORA1 (Homo sapiens, UniProt P30542); test: NanoBRET screen HiBiT-ADORA1 in HEK293
T2 construct: purchased Promega (in-house HiBiT-GPCR construct library, NanoBRET)
T2 sequence (P30542 1-326): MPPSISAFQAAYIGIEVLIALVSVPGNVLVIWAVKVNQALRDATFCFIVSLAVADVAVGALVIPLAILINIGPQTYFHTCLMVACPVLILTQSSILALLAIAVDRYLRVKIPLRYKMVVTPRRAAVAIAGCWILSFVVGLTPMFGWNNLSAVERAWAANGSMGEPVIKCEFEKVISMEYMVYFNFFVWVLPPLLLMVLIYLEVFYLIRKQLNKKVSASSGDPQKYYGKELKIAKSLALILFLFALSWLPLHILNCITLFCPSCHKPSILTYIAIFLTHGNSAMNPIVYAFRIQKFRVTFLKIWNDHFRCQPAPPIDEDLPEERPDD
Procedure: (§1) Each tracer candidate was screened across the entire library of HiBiT-GPCR constructs using NanoBRET as the detection modality. As depicted in Figure 4A, the specificity of interactions was evaluated through decrease in BRET due to competitive displacement of a bound tracer by excess parental compound. Each tracer was analyzed for binding to each HiBiT-GPCR fusion in the absence and in the presence of competing parental compound. Briefly, HEK293 cells were transfected with HiBiT-GPCR constructs diluted into promoterless DNA to reduce expression and maximize translocation to the cell surface. Each tracer candidate was then screened at concentrations of 1 μM and 0.1 μM across cells expressing these fusions. Cells were treated for 1.5 h with tracer either alone or in the presence of 20 μM competing parental compound (i.e., control). BRET was measured upon addition of purified LgBiT and subsequent complementation with HiBiT genetically fused to a GPCR. The specificity of interactions was assessed through a decrease in BRET signal due to competitive displacement of the bound tracer. To further gauge the robustness of these interactions, the fold response over the control (i.e., BRETtracer/BRETcontrol) was calculated. We chose a 1.5-fold response, which translates to ≥7-fold signal over noise as the minimal threshold required to score an interaction as positive. […]. Below we highlight the screening results obtained for our exemplary fluorescent tracers based on Clozapine, Amitriptyline and AZD1283.
(§2) HiBiT-GPCR DNA constructs were diluted in 10 mM Tris pH 8 to a final concentration of 0.01 μg/μL, arrayed in 96-well plates and stored at −20 °C. For transfection, HEK293 cells were suspended in Opti-MEM (without phenol red) supplemented with 2% fetal bovine serum (Seradigm) and 100 units/mL penicillin–streptomycin (Gibco) at a final concentration of 220,000 cells/mL and dispensed into white 96-well plates at 90 μL/well. Subsequent transfections and screens were carried using an Agilent Bravo Automated Liquid Handling Platform. First, the 96-well HiBiT DNA arrays were diluted 25-fold in Opti-MEM (without serum or phenol red) to a final concentration of 0.0004 μg/μL and 20 μL of the diluted DNAs were transferred into new 96-well plates. Next, promoterless carrier DNA (1 μg/μL) was diluted 25-fold (0.04 μg/μL) and then dispensed into the diluted arrays at 20 μL/well. Following brief mixing, Viafect transfection reagent (Promega) diluted 16-fold into Opti-MEM was dispensed into the plates at 40 μL/well. After mixing by pipetting, plates were incubated for 10 min on the pipetting station deck. The DNA-transfection reagent complexes were then added to plates containing cells. To facilitate the screen, 10 μL of DNA-transfection reagent complexes were added in duplicates to the top 4 and bottom 4 rows, resulting in two identical 48-well arrays per plate. Plates with transfected cells were incubated for 18–20 h at 37 °C/5% CO2. A screen of each tracer across the entire library using two different concentrations requires duplicate plates of transfected cells. Depending on the number of tracers being screened, transfections can be scaled up using the same ratios. The next day, for each tracer, four 20× screening solutions in tracer dilution buffer (Promega) were prepared: two duplicates at final concentration of 20 μM and two duplicates at a final concentration of 2 μM. A competing unmodified compound was added to one of each duplicate at a final concentration of 400 μM. The four resulting solutions were diluted 4-fold in Opti-MEM without serum or phenol red to generate 5× solutions (5 µM and 0.5 µM tracer +/− 100 μM competing compound). To screen the library, a BioTek MultiFlo FX liquid dispenser was used to dispense 22.5 µL of tracer solution to the top 4 rows and 22.5 µL tracer + competing compound solution to the 4 bottom rows. Plates were briefly mixed on an orbital shaker and incubated for 1.5 h at room temperature. […]

GRM4 = biological target: T3, GRM4 (Homo sapiens, UniProt Q14833); test: NanoBRET screen HiBiT-GRM4 in HEK293
T3 construct: purchased Promega (in-house HiBiT-GPCR construct library, NanoBRET)
Procedure: as §1, §2

NPFFR2 = biological target: T4, NPFFR2 (Homo sapiens, UniProt Q9Y5X5); test: NanoBRET screen HiBiT-NPFFR2 in HEK293
T4 construct: purchased Promega (in-house HiBiT-GPCR construct library, NanoBRET)
Procedure: as §1, §2

T1 sequence (P08588 whole entry): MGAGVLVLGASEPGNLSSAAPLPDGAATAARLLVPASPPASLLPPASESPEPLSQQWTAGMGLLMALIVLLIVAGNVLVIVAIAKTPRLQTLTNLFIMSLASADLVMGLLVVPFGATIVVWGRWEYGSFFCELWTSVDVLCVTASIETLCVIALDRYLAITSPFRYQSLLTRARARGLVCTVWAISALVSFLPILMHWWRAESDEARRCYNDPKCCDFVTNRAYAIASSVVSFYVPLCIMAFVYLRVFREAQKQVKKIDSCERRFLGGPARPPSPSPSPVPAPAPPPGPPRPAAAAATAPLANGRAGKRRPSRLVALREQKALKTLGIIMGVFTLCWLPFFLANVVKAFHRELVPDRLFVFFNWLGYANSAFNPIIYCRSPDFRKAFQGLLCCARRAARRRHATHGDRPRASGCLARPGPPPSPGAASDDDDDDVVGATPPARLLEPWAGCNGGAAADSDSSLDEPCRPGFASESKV
T3 sequence (Q14833 33-912): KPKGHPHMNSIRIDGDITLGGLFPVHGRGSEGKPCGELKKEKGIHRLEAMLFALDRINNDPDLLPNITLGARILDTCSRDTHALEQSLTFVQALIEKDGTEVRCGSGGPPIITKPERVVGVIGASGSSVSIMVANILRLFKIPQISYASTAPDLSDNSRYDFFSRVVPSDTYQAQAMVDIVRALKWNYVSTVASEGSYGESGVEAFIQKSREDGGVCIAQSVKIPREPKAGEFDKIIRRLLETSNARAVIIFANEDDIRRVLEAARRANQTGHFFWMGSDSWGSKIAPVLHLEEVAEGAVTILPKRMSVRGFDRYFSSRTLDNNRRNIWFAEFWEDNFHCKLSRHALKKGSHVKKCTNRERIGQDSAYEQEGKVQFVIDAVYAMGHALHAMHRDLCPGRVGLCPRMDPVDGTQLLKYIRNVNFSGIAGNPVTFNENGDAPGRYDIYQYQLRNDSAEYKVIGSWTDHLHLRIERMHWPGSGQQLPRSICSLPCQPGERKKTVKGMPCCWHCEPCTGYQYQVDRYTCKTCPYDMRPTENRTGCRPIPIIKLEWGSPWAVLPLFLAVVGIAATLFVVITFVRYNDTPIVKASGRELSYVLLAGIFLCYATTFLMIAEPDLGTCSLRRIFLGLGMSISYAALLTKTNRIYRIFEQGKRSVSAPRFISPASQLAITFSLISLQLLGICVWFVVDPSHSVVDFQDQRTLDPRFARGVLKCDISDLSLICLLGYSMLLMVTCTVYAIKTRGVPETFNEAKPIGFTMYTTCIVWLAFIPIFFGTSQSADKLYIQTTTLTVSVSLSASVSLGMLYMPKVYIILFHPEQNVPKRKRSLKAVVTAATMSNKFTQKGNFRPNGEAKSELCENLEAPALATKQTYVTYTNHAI
T4 sequence (Q9Y5X5 whole entry): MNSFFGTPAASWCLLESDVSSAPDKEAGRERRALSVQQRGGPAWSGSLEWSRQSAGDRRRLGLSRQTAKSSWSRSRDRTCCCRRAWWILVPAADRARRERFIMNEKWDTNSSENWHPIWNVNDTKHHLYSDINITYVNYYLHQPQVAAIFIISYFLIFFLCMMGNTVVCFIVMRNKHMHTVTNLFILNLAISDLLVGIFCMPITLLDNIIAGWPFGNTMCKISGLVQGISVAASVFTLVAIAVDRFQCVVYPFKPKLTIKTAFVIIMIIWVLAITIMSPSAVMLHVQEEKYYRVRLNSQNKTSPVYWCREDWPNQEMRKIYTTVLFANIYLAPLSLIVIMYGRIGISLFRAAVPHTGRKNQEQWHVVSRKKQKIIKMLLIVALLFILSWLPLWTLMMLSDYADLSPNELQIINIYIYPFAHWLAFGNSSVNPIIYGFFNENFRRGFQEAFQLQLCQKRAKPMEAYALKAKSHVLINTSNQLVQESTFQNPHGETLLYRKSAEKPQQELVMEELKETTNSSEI

With CN(C)CCC=C1c2ccccc2CCc2ccc(C(=O)NCCNC(=O)CCOCCOCCOCCOCCNC(=O)CCc3ccc4n3[B-](F)(F)[N+]3=C(c5ccc[nH]5)C=CC3=C4)cc21 [Amitriptyline-a-2-NB590] the “NanoBRET Fold Response” value (ADRB1; tracer at 0.1μM) was 1.05, the “NanoBRET Fold Response” value (ADRB1; tracer at 1μM) was 1.18 and the “NanoBRET Fold Response” value (ADORA1; tracer at 0.1μM) was 1.11. For the same molecule, the “NanoBRET Fold Response” value (ADORA1; tracer at 1μM) was 1.02.

With Cc1nc2n(c(=O)c1CCN1CCC(c3noc4cc(F)ccc34)CC1)CCCC2OC(=O)NCCOCCOCCOCCOCCNC(=O)CCc1ccc2n1[B-](F)(F)[N+]1=C(c3ccc[nH]3)C=CC1=C2 (centres unmarked) [Risperidone-2-NB590] the “NanoBRET Fold Response” value (GRM4; GRM4, tracer 0.1μM) was 0.98, the “NanoBRET Fold Response” value (GRM4; GRM4, tracer 1μM) was 1.05 and the “NanoBRET Fold Response” value (NPFFR2; NPFFR2, tracer 0.1μM) was 1.02. For the same molecule, the “NanoBRET Fold Response” value (NPFFR2; NPFFR2, tracer 1μM) was 0.98, the “NanoBRET Fold Response” value (ADRB1; ADRB1, tracer 0.1μM) was 0.98 and the “NanoBRET Fold Response” value (ADRB1; ADRB1, tracer 1μM) was 1.05. For the same molecule, the “NanoBRET Fold Response” value (ADORA1; ADORA1, tracer 0.1μM) was 1.04 and the “NanoBRET Fold Response” value (ADORA1; ADORA1, tracer 1μM) was 1.05.

With COc1ccc2[nH]c(-c3ccc(CNC(=O)CCOCCOCCOCCOCCNC(=O)CCc4ccc5n4[B-](F)(F)[N+]4=C(c6ccc[nH]6)C=CC4=C5)cc3)c(CCNC(C)=O)c2n1 [AzomelatoninICO9-2-NB590] the “NanoBRET Fold Response” value (GRM4; 0.1μM tracer) was 0.97, the “NanoBRET Fold Response” value (GRM4; 1μM tracer) was 0.85 and the “NanoBRET Fold Response” value (NPFFR2; 0.1μM tracer) was 0.91. For the same molecule, the “NanoBRET Fold Response” value (NPFFR2; 1μM tracer) was 1.06, the “NanoBRET Fold Response” value (ADRB1; 0.1μM tracer) was 0.84 and the “NanoBRET Fold Response” value (ADRB1; 1μM tracer) was 0.96. The “NanoBRET Fold Response” value (ADORA1; 0.1μM tracer) was 0.91 and the “NanoBRET Fold Response” value (ADORA1; 1μM tracer) was 0.94.

For COc1ccccc1N1CCN(CCCCN2C(=O)c3ccc(CNC(=O)CCOCCOCCOCCOCCNC(=O)CCc4ccc5n4[B-](F)(F)[N+]4=C(c6ccc[nH]6)C=CC4=C5)cc3C2=O)CC1 [NAN-190-2-NB590], the “NanoBRET Fold Response” value (GRM4; GRM4, tracer 0.1μM) was 0.98, the “NanoBRET Fold Response” value (GRM4; GRM4, tracer 1μM) was 0.97 and the “NanoBRET Fold Response” value (NPFFR2; NPFFR2, tracer 0.1μM) was 0.97. For the same molecule, the “NanoBRET Fold Response” value (ADORA1; ADORA1, tracer 0.1μM) was 1.10 and the “NanoBRET Fold Response” value (ADORA1; ADORA1, tracer 1μM) was 0.92.

In the case of O=C(CCc1ccc2n1[B-](F)(F)[N+]1=C(c3ccc[nH]3)C=CC1=C2)NCc1ccc(C(=O)NCCOCCOCCNCC(O)COc2cccc3ccccc23)cc1 (centres unmarked) [Propranolol-3-NB590], the “NanoBRET Fold Response” value (GRM4; GRM4, 0.1μM) is reported as 1.11, the “NanoBRET Fold Response” value (GRM4; GRM4, 1μM) is reported as 1.04 and the “NanoBRET Fold Response” value (NPFFR2; NPFFR2, 0.1μM) is reported as 1.01. The “NanoBRET Fold Response” value (NPFFR2; NPFFR2, 1μM) was 1.01, the “NanoBRET Fold Response” value (ADORA1; ADORA1, 0.1μM) was 0.98 and the “NanoBRET Fold Response” value (ADORA1; ADORA1, 1μM) was 0.98.

COc1ccccc1N1CCN(CCCCN2C(=O)c3ccc(CNC(=O)CCOCCNC(=O)c4ccc(CNC(=O)CCc5ccc6n5[B-](F)(F)[N+]5=C(c7ccc[nH]7)C=CC5=C6)cc4)cc3C2=O)CC1 [NAN-190-3-NB590] was tested, and the “NanoBRET Fold Response” value (GRM4; GRM4, tracer 0.1μM) was 1.14, the “NanoBRET Fold Response” value (GRM4; GRM4, tracer 1μM) was 1.33 and the “NanoBRET Fold Response” value (NPFFR2; NPFFR2, tracer 0.1μM) was 1.02. The “NanoBRET Fold Response” value (NPFFR2; NPFFR2, tracer 1μM) was 1.01, the “NanoBRET Fold Response” value (ADORA1; ADORA1, tracer 0.1μM) was 1.07 and the “NanoBRET Fold Response” value (ADORA1; ADORA1, tracer 1μM) was 0.89.

N#CN/C(=N\CCNC(=O)c1ccc(N)cc1)NCCCOc1cccc(CN2CCCCC2)c1 [Aminopotentidine (unmodified)] was tested, and the “NanoBRET Fold Response” value (ADRB1; ADRB1, other tracers/Aminopotentidine (unmodified), 0.1μM) was 1.01 and the “NanoBRET Fold Response” value (ADRB1; ADRB1, other tracers/Aminopotentidine (unmodified), 1μM) was 1.07.

For CN(CCC=C1c2ccccc2CCc2ccccc21)C(=O)CCOCCOCCOCCOCCNC(=O)CCc1ccc2n1[B-](F)(F)[N+]1=C(c3ccc[nH]3)C=CC1=C2 [Amitriptyline-e-2-NB590], the “NanoBRET Fold Response” value (ADRB1; tracer at 1μM) was 0.95 and the “NanoBRET Fold Response” value (ADORA1; tracer at 1μM) was 1.08.
